Key:
MsParA (Ms6939) = biological target: T1, MsParA (Ms6939) (Mycolicibacterium smegmatis, UniProt A0R7J4); test: malachite green phosphate release ATPase assay; type: biochemical; details: 200 uM ATP, 150 nM protein, 1 mM MgCl2, 50 mM HEPES pH 8.0, 37 C
T1 construct: gene MSMEG_6939; recombinant, E. coli BL21, pET28a (6xHis) or pGEX-4T-1 (GST)
T1 sequence (A0R7J4 1-323): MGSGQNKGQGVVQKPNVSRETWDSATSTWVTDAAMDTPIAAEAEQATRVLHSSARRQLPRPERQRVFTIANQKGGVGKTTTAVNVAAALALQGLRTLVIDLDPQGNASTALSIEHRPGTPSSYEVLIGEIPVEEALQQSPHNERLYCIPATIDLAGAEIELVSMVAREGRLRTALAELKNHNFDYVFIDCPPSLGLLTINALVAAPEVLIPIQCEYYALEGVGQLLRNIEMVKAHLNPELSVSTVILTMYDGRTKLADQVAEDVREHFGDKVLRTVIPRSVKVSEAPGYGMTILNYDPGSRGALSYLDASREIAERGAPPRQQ

MtTAG (Rv1210) = biological target: T2, MtTAG (Rv1210) (Mycobacterium tuberculosis, UniProt O05311)
T2 construct: gene tagA
T2 sequence (O05311 entry or part of it): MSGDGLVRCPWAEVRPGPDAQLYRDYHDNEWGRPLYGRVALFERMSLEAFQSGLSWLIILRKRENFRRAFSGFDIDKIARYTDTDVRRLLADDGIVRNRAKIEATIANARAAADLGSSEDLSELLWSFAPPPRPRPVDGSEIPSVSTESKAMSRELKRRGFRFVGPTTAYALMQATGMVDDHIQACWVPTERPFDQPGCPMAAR

MsTAG (Ms5082) = biological target: T3, MsTAG (Ms5082) (Mycolicibacterium smegmatis, UniProt A0R2E4); test: malachite green phosphate release ATPase assay; type: biochemical; details: 200 uM ATP, 150 nM protein, 1 mM MgCl2, 50 mM HEPES pH 8.0, 37 C
T3 construct: gene tag; recombinant, E. coli BL21, pET28a (6xHis) or pGEX-4T-1 (GST)
T3 sequence (A0R2E4 1-209): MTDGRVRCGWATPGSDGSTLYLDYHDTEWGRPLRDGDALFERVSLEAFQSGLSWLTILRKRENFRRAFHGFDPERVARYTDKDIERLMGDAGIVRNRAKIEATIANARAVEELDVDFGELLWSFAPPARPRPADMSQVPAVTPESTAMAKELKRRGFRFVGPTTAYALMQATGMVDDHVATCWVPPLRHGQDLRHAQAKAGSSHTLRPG

In the case of `Nc1ncnc2c1ncn2[C@@H]1O[C@H](COP(=O)(O)OP(=O)(O)OP(=O)(O)O)[C@@H](O)[C@H]1O` [ATP], the “malachite green phosphate release ATPase assay” value (MsParA (Ms6939)) is reported as “verifying that MsParA had ATPase activity (Fig. 5A)”, the “malachite green phosphate release ATPase assay” value (MtTAG (Rv1210)) is reported as “MtTAG had an obvious ATPase activity but Rv1210-K78A, its mutant variant, did not” and the “malachite green phosphate release ATPase assay” value (MsTAG (Ms5082)) is reported as “MsTAG was found to have stronger ATPase activity than MsParA under the same conditions”.

From publication PMC3366916, “Characterization of a Conserved Interaction between DNA Glycosylase and ParA in Mycobacterium smegmatis and M. tuberculosis” (PLoS ONE, 2012)
